Measurements from patent publication US20110065769A1, “Transdermal delivery of ionizable drugs” (priority 2009, published 2011).

Key:
[1] = Rat skin flux enhancement, side by side diffusion cell; format: in vitro ADME; details: for Skin flux enhancement by 3% PerRx (in words): 3% PerRx vs control at pH 7.4; for Skin flux, control: control formulation without PerRx; for Skin flux, control / Flux enhancement (S.F. Control + 3% PerRx)/(S.F. control) / Skin flux, control + 3% PerRx: hairless rat skin; for Skin flux, control / Skin flux, control + 3% PerRx: donor suspension pH 7.4, 37° C.; for Flux enhancement (S.F. Control + 3% PerRx)/(S.F. control): ratio of skin flux with 3% PerRx to control, pH 7.4; for Skin flux, control + 3% PerRx: with 3% PerRx enhancer
Experimental: […] The dorsal skin from a rat was excised and mounted on a side by side diffusion cell assembly with a contact area of 0.95 cm^2 and cell volume of 2.5 ml. The temperature of the diffusion cell was regulated at 37° C. The excised rat skin was clamped between the donor cell and the receiver with the dorsal stratum corneum facing the donor cell.
The model drug molecules were suspended in physiological phosphate buffer solution, of pH 7.4. The sampling volume of 1.0 ml was removed at the time point and the sampling volume was replaced with a fresh volume of the buffer solution. Skin flux of the drugs was measured in the absence or presence of the enhancer N,N-dimethylamino isobutyric acid propylene glycol mono laureate (also known as dodecanoic acid 2-(3-dimethylamethyl-propionyloxy)-propylester, or PerRx™).

[2] = Aqueous solubility with addition of 3% PerRx; format: physicochemical; details: 3% PerRx added to control formulation
From the text: So in the present work, it is believed that at pH 7.4 addition of the acetic acid functional group into polar head position will affect tremendously the physical chemical properties of molecules. […] See the results table.

Row | Compound | Skin flux enhancement by 3% PerRx (in words) [1] | Skin flux, control [1] | Flux enhancement (S.F. Control + 3% PerRx)/(S.F. control) [1] | Skin flux, control + 3% PerRx [1] | Effect of addition of 3% PerRx on aqueous solubility [2]
1 | COc1ccc2c(c1)c(CC(=O)O)c(C)n2C(=O)c1ccc(Cl)cc1 [INDOM, indomethacin] | enhanced most | 0.5 μg/cm^2-hr | 14X | 7.0 μg/cm^2-hr | –
2 | O=[N+]([O-])O[C@H]1CO[C@H]2[C@@H]1OC[C@H]2O[N+](=O)[O-] [ISDN, Isosorbide di nitrate] | – | 20 μg/cm^2-hr | 2X | 40 μg/cm^2-hr | –
3 | O=[N+]([O-])O[C@@H]1CO[C@H]2[C@@H]1OC[C@@H]2O [ISMN, Isosorbide mono nitrate] | enhanced most | 40 μg/cm^2-hr | 18 X | 700 μg/cm^2-hr | does not affect the aqueous solubility
